Reference: patent US20050260290A1, “Botanical anti-inflammatory compositions and methods” (RUTGERS, THE STATE UNIVERSITY OF NEW JERSEY, priority 2004, published 2005)

Columns and labels:
COX-2 enzyme = biological target: T1, COX-2 enzyme (Ovis aries, UniProt P79208); assay: colorimetric COX (ovine) inhibitor screening assay, COX-2 inhibition; details: peaks of subfractionated paradol fraction (Method C)
T1 sequence (P79208 17-603): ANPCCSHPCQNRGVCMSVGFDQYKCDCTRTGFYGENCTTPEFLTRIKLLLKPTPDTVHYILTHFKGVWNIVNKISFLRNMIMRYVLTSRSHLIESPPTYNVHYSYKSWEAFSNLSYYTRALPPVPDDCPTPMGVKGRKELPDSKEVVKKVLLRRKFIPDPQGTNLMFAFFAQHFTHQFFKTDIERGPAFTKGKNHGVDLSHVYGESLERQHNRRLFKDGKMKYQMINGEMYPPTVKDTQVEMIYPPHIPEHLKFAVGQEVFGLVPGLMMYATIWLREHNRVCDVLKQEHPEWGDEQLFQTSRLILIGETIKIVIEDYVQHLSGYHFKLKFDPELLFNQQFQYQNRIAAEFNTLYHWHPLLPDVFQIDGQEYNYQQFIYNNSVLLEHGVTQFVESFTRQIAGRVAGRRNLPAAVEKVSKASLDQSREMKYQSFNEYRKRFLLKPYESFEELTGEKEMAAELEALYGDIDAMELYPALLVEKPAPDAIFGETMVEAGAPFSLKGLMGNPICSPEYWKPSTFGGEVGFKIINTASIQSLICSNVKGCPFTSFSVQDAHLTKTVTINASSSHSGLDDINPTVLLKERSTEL
Procedure: The anti-inflammatory extract product of Example 1 was suspended in 95 vol. % ethanol at a concentration of 1 milligram (mg) extract product per milliliter (mL) ethanol to form an A. melegueta solution. The activity of the solution was tested with a colorimetric COX (ovine) inhibitor screening assay (catalogue no. 760111, Cayman Chemical, Ann Arbor, Mich.). The screening assay measures the peroxidase activity of cyclooxygenases by monitoring the appearance of oxidized N,N,N′N′-tetramethyl-p-phenylenediamine (TMPD) at 590 nm as previously described [Kulmacz, Prostaglandins, 25:531-540 (1983)]. A (relatively) higher TMPD concentration corresponds to a greater absorbance at 590 nm, a greater peroxidase activity, and a greater COX-2 activity (corresponding to the degree of inhibition of COX-2 activity).
Three milliliters (mL) of assay buffer concentrate (as provided) was diluted with 27 mL HPLC-grade water to provide a final assay buffer (0.1M Tris-HCl, pH 8). This buffer assay solution was used to prepare heme and COX-2 enzyme assay solutions. […]
10 μl of 95 vol. % ethanol was then added to the background and negative control wells. […] The absorbance for each well was measured at 590 nm using a plate reader.
The inhibitory activity was calculated from these absorbance readings. […]

[1] = tested on: carrageenan hind paw edema; assay: rat hind paw edema assay, two studies (Example 4); assay type: in vivo, Long-Evans-derived rats; details: 1 h after carrageenan (positive control)
Procedure: Two studies were conducted. […] The anti-inflammatory extract product was administered to the groups at different dose protocols. Comparisons can be made relative to the negative and positive control animal groups. Groups 2 and 4 of the first and second study, and Groups 2 and 5 of the second study, received a single dose of the extract product one hour after hind paw injection of carrageenan (0.1 ml of a suspension of 1 wt. % carrageenan in […], intraplantar). Group 3 of both studies received a first dose of the extract product one hour before, and a second dose of the extract product one hour after, hind paw injection of carrageenan. […] Group 4 of the second study received a dose of the extract product one hour before administration of carrageenan. Group 5 of the first study and Group 6 of the second study received indomethacin, a commercially available nonsteroidal anti-inflammatory drug, one hour after hind paw injection of carrageenan. Indomethacin was administered as a positive control reference compound, and Groups 5 and 6 (of the first and second studies, respectively) represent positive control groups. The severity of the hind paw edema (i.e., hind paw volume) was recorded at 3 hours after, 5 hours after, and 24 hours after carrageenan administration using a plethysmometer (Ugo Basile, Italy). The hind paw volume measurements after carrageenan administration correspond to the amount of induced swelling, and a reduction in the percentage of increase in hind paw volume relative to the percentage of increase observed in hind paw volume for the negative control group corresponds to a reduction in inflammation. For example, the hind paw volume of the negative control group of the first study (Group 1) increased by about 45% whereas the hind paw volume of Group 2 (which received an Aframomum melegueta extract product) increased by only 25%.

[2] = tested on: acetic acid-induced writhing; assay: acetic acid-induced writhing assay; assay type: in vivo, mice; details: 100 mg/kg
Procedure: This writhing assay has been previously described [Inoue et al., Arzneimittelforschung, 41(3):235-239 (1991).] […] An aqueous solution comprising 2 vol. % Tween 80 was administered as a negative control to another group of three mice. Aspirin was administered at 100 mg/kg as a positive control to a fourth group of three mice. The number of writhings per animal group was observed during the period beginning at about five minutes after acetic acid challenge and ending at about ten minutes after acetic acid challenge. The average number of writhings per animal group is an indication of pain, e.g., inflammation-induced pain, and therefore a reduction in the number of writhings per unit time per animal group corresponds to a reduction in inflammation. The reduction in number of writhings can be expressed relative to the negative control value as a percentage of inflammation inhibition.

[3] = tested on: carrageenan hind paw edema; assay: rat hind paw edema assay (Example 3); assay type: in vivo, Long-Evans-derived rats; details: 150 mg/kg; 3 h after carrageenan
Procedure: Hind paw edema models have been extensively described [see, for example, […] et al. (eds.), Inflammation Protocols, pp. 115-122 (2003)] and have been accepted as in vivo models of human inflammation. […] Aspirin was administered to another group of three Long-Evans rats at 150 mg/kg dose as a positive control reference compound. The severity of the hind paw edema (i.e., the hind paw volume) was recorded 3 hours after carrageenan administration using a plethysmometer (Ugo Basile, Italy). The hind paw volume measurements correspond to the amount of induced swelling, and therefore a reduction in the swelling corresponds to a reduction in inflammation. The anti-inflammatory activity of the Aframomum melegueta extract products can be expressed as a percentage of edema reduction (relative to the negative control (i.e., full edema)).

[4] = first study Group 5: 15 mg/kg, 3 h
[5] = first study Group 5: 15 mg/kg, 5 h
[6] = first study Group 5: 15 mg/kg, 24 h
[7] = second study Group 6: 15 mg/kg, 3 h
[8] = second study Group 6: 15 mg/kg, 5 h
[9] = second study Group 6: 15 mg/kg, 24 h

Compound `CCCCCCCC(=O)CCc1ccc(O)c(OC)c1` (single isomer, unassigned) [first peak, [6]-paradol] has a COX-2 inhibitory activity (COX-2 enzyme; 1 mg/mL) of 74%.
`CCCCCCCC(=O)CCc1ccc(O)c(OC)c1` (single isomer, unassigned) [second peak, [6]-paradol] gave an inhibition at 1000 µg/mL (COX-2 enzyme; read-out: COX-2 inhibitory activity, 1 mg/mL) of 83%.
`COc1ccc2c(c1)c(CC(=O)O)c(C)n2C(=O)c1ccc(Cl)cc1` [Indomethacin, indomethacin] was tested, and the “Increase in rat hind paw volume after carrageenan administration” value (shortened to “Increase in rat hind paw volume”) [1, 4] was 44%, the “rat hind paw volume after carrageenan administration” value [1, 4] was 1.51 ± 0.05 mL and the “Increase in rat hind paw volume” value [1, 5] was 29%. The “rat hind paw volume after carrageenan administration” value [1, 5] was 1.35 ± 0.08 mL, the “Increase in rat hind paw volume” value [1, 6] was 12% and the “rat hind paw volume after carrageenan administration” value [1, 6] was 1.18 ± 0.1 mL. The “Increase in rat hind paw volume” value [1, 7] was 44%, the “rat hind paw volume after carrageenan administration” value [1, 7] was 1.51 ± 0.05 mL and the “Increase in rat hind paw volume” value [1, 8] was 29%. The “rat hind paw volume after carrageenan administration” value [1, 8] was 1.35 ± 0.08 mL, the “Increase in rat hind paw volume” value [1, 9] was 12% and the “rat hind paw volume after carrageenan administration” value [1, 9] was 1.18 ± 0.1 mL.
In the case of `CC(=O)Oc1ccccc1C(=O)O` [aspirin], the “percentage of inflammation inhibition (writhing)” value [2] is reported as 80%, the “average number of writhings per animal group” value ([2]; 5-10 min after challenge) is reported as 3 and the “reduction of hind paw edema” value [3] is reported as “about 43%”.
